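Protocol summary: plate cells (96-well), add compound at 5 concentrations, incubate 48 h, interpolate endpoints linearly. At the GI50, growth is halved.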 Activity calls are given as the source filed them. Rule as the data show it: active = GI50 up to about 1.1 µM and inactive = higher.
Columns and labels:
Test in all cases: NCI-60 cell line screen, 48 h
DLD-1 = tested on: DLD-1
SNB-78 = tested on: SNB-78
DMS-273 = tested on: DMS-273
M19-MEL = tested on: M19-MEL
KM-20L2 = tested on: KM-20L2
LXFL 529 = tested on: LXFL 529
DMS-114 = tested on: DMS-114
XF498 = tested on: XF498
RXF 631 = tested on: RXF 631

SMILES | GI50 (DLD-1) | GI50 (SNB-78) | GI50 (DMS-273) | GI50 (M19-MEL) | GI50 (KM-20L2) | GI50 (LXFL 529) | GI50 (DMS-114) | GI50 (XF498) | GI50 (RXF 631)
COC(OC)c1cccc2c1C(=O)CCC1(CC2)OCCCCO1 | > 100 µM (inactive) | > 100 µM (inactive) | > 100 µM (inactive) | > 100 µM (inactive) | > 100 µM (inactive) | > 100 µM (inactive) | > 100 µM (inactive) |  | 
O=C1NC(=O)C2C(=O)NC(=O)C1C2c1c(Cl)cccc1Cl (configuration not stated) | > 43.3 µM (inactive) | > 100 µM (inactive) | > 42.7 µM (inactive) |  | > 49.5 µM (inactive) | > 100 µM (inactive) | > 38.4 µM (inactive) | > 100 µM (inactive) | > 100 µM (inactive)
CCC(=O)C(C)C1=Nc2nnc(CCCCCCCc3nnc4n3C(=O)C(C(C)C(=O)CC)=N4)n2C1=O (configuration not stated) |  |  |  | > 100 µM (inactive) | > 100 µM (inactive) | > 100 µM (inactive) | > 100 µM (inactive) | > 100 µM (inactive) | 
COC1(OC)CC2C(=O)N(Cc3ccccc3)C1C(S(=O)(=O)c1ccccc1)C2S(=O)(=O)c1ccccc1 (configuration not stated) | 3.52 µM (inactive) | 18.5 µM (inactive) | 14.6 µM (inactive) | 11.1 µM (inactive) | 17.4 µM (inactive) | 3.48 µM (inactive) | 3.7 µM (inactive) |  | 16.7 µM (inactive)
NC1=C(O)c2cccc3cccc(c23)C1=O | > 100 µM (inactive) | > 100 µM (inactive) | > 100 µM (inactive) | > 100 µM (inactive) | > 100 µM (inactive) | > 100 µM (inactive) | > 100 µM (inactive) |  | > 100 µM (inactive)
CC(=O)NNc1nc(C)c(C(=O)NNC(=O)C(=O)Nc2ccc(Cl)cc2Cl)s1 | 38.4 µM (inactive) | 36.6 µM (inactive) |  | 38.4 µM (inactive) | 40.1 µM (inactive) | 29.4 µM (inactive) | 33.2 µM (inactive) | 30.1 µM (inactive) | 
Cc1cccc(N2C(=O)C(=O)C(c3nc4ccccc4s3)C(=O)C2=O)c1C | > 100 µM (inactive) | > 100 µM (inactive) | > 100 µM (inactive) | > 100 µM (inactive) | > 100 µM (inactive) | > 100 µM (inactive) | > 100 µM (inactive) |  | > 100 µM (inactive)
CC(=O)/C(=N\O)C(=O)Nc1ccc(Cl)cc1Cl | > 100 µM (inactive) | > 100 µM (inactive) | > 100 µM (inactive) | > 100 µM (inactive) | > 100 µM (inactive) | > 100 µM (inactive) | > 100 µM (inactive) |  | 
CC1(C)CC(c2c[nH]c3ccccc23)=CC2=Nc3ccccc3C21O (configuration not stated) | > 100 µM (inactive) | 76 µM (inactive) | > 100 µM (inactive) | > 100 µM (inactive) | > 100 µM (inactive) | 47.4 µM (inactive) | > 100 µM (inactive) | 29.2 µM (inactive) | 
O=C(Nc1ccccc1)Oc1ccccc1C1CCCCC1 | 13.9 µM (inactive) | 17.7 µM (inactive) | 15.2 µM (inactive) | 16 µM (inactive) |  | 22.5 µM (inactive) | 12 µM (inactive) | 19 µM (inactive) | 
Cc1c(C(=O)C/C(=N/NC(=O)c2ccccc2O)C(=O)Nc2ccccc2C(C)C)[n+]([O-])c2ccccc2[n+]1[O-] | 31.8 µM (inactive) | 84.7 µM (inactive) | 31.8 µM (inactive) | 46.5 µM (inactive) | 39.7 µM (inactive) | 25.1 µM (inactive) | 23.1 µM (inactive) | > 100 µM (inactive) | 
CCCCCCCCCCC(=O)CCCCCCC(=O)O | 19 µM (inactive) | 69.8 µM (inactive) | 19.3 µM (inactive) | 27 µM (inactive) |  | 18.2 µM (inactive) | 20.3 µM (inactive) | 24.3 µM (inactive) | 19.9 µM (inactive)
COc1cc([C@@H]2c3cc4c(cc3[C@@H](NC(=O)c3ccc(OC(C)=O)cc3)C3COC(=O)[C@@H]32)OCO4)cc(OC)c1O (some centres not stated) | 2.96 µM (inactive) | 19.8 µM (inactive) | 0.359 µM (active) | 8.71 µM (inactive) | 2.13 µM (inactive) | 9.62 µM (inactive) | 1.2 µM (inactive) | 0.813 µM (active) | 1.76 µM (inactive)
C[C@H](NS(=O)(=O)c1ccc(NC(=O)c2ccccc2)cc1)C(=O)O | > 100 µM (inactive) |  | > 100 µM (inactive) | > 100 µM (inactive) | > 100 µM (inactive) | > 100 µM (inactive) |  | > 100 µM (inactive) | 
CN(C)CC1CCCC/C1=N\OC(=O)c1ccccc1 (configuration not stated) | > 100 µM (inactive) | > 100 µM (inactive) | > 100 µM (inactive) | > 100 µM (inactive) | > 100 µM (inactive) | > 100 µM (inactive) | > 100 µM (inactive) | > 100 µM (inactive) | > 100 µM (inactive)
N#Cc1ccc(Oc2cccc(Oc3ccccc3)c2)cc1C#N | > 10 µM (inactive) | > 10 µM (inactive) |  | > 10 µM (inactive) | > 10 µM (inactive) | 61 µM (inactive) | 31.9 µM (inactive) | > 10 µM (inactive) | 79.6 µM (inactive)
CCC1CNC(=O)CC1CC(=O)OC (configuration not stated) |  | > 100 µM (inactive) |  |  | > 100 µM (inactive) |  | > 100 µM (inactive) |  | 
Cc1c(/C=C2\CC/C(=C\c3[nH]c(C(=O)OC(C)(C)C)c(C)c3C)C2=O)[nH]c(C(=O)OC(C)(C)C)c1C | > 100 µM (inactive) | > 100 µM (inactive) | > 100 µM (inactive) | > 100 µM (inactive) | > 100 µM (inactive) | > 100 µM (inactive) | > 100 µM (inactive) | > 100 µM (inactive) | 
COc1cc2cc3c4cc(OC)c(OC)cc4cc[n+]3c(C)c2cc1OC.O=C([O-])CS(=O)(=O)O | > 100 µM (inactive) | 48.4 µM (inactive) | 63.8 µM (inactive) | 69 µM (inactive) | > 100 µM (inactive) | 10.8 µM (inactive) | 3.34 µM (inactive) | 36.4 µM (inactive) | 
c1ccc2c(CNCCCCCCCCCCCCNCc3cccc4ccccc34)cccc2c1 | 1.6 µM (inactive) | 1.9 µM (inactive) | 91.8 µM (inactive) | 1.81 µM (inactive) | 1.84 µM (inactive) | 1.83 µM (inactive) |  | 1.69 µM (inactive) | 
